Source: ChEMBL document CHEMBL1131405, “Novel bisphosphonate inhibitors of phosphoglycerate kinase” (Bioorg Med Chem Lett, 1998)

Columns and labels:
[1] = Dissociation constant (pKa3); type: physicochemical; details: read-out: pKa3
[2] = Dissociation constant (pKa4); type: physicochemical; details: read-out: pKa4

Row | SMILES | pKa [1] | pKa [2]
1 | O=P(O)(O)Cc1cccc(C(F)(F)P(=O)(O)O)c1 | 5.04 | 5.84
2 | O=P(O)(O)C(F)c1ccc(C(F)P(=O)(O)O)cc1 (stereo unspecified) | 6.02 | 6.37
3 | O=P(O)(O)Cc1ccccc1CP(=O)(O)O | 7.1 | 8.53
4 | O=P(O)(O)Cc1cccc(CP(=O)(O)O)n1 | 6.7 | 8.49
5 | O=P(O)(O)C(F)(F)c1cccc(C(F)(F)P(=O)(O)O)n1 | 5.18 | 5.3
6 | O=P(O)(O)C(F)(F)c1ccc(C(F)(F)P(=O)(O)O)cc1 | 4.82 | 5.6
7 | O=P(O)(O)c1cccc(C(F)P(=O)(O)O)c1 (stereo unspecified) | 5.8 | 6.99
8 | C=C(CP(=O)(O)O)CP(=O)(O)O | 6.45 | 7.45
9 | O=P(O)(O)Cc1ccc(C(F)P(=O)(O)O)cc1 (stereo unspecified) | 6.3 | 7.72
10 | Cc1cc(C)c(C(F)(F)P(=O)(O)O)cc1C(F)(F)P(=O)(O)O | 5.33 | 5.92
11 | O=P(O)(O)Cc1cccc(C(O)P(=O)(O)O)c1 (stereo unspecified) | 6.98 | 7.29
12 | O=P(O)(O)Cc1ccc(C(F)(F)P(=O)(O)O)cc1 | 5.27 | 6.63
13 | O=P(O)(O)C(F)c1cccc(C(F)P(=O)(O)O)n1 (stereo unspecified) | 5.18 | 5.3
14 | O=P(O)(O)c1cccc(C(F)(F)P(=O)(O)O)c1 | 5.61 | 6.9
15 | Cc1cc(C)c(CP(=O)(O)O)c(C)c1CP(=O)(O)O | 7.4 | 8.16
16 | Cc1cc(C)c(CP(=O)(O)O)cc1CP(=O)(O)O | 7.24 | 7.78
17 | O=P(O)(O)C(O)c1cccc(C(O)P(=O)(O)O)c1 (stereo unspecified) | 6.78 | 7.23
18 | O=P(O)(O)c1cccc(C(O)P(=O)(O)O)c1 (stereo unspecified) | 6.55 | 7.46
19 | O=P(O)(O)Cc1cccc(CP(=O)(O)O)c1 | 7.11 | 7.71
20 | O=P(O)(O)Cc1ccc(CP(=O)(O)O)cc1 | 7.03 | 7.49
21 | O=P(O)(O)C(O)c1cccc(C(O)P(=O)(O)O)n1 (stereo unspecified) | 6.57 | 7.58
22 | O=P(O)(O)Cc1cccc(P(=O)(O)O)c1 | 6.47 | 7.61
23 | O=P(O)(O)C(F)c1cccc(C(F)P(=O)(O)O)c1 (stereo unspecified) | 6.01 | 6.37
